Reference: paper doi:10.1101/2024.08.19.608619, “Discovery of potent SARS-CoV-2 nsp3 macrodomain inhibitors uncovers lack of translation to cellular antiviral response” (bioRxiv, 2024)
Where two headings read alike, the source gives them in different places.

Legend:
Assay in all cases: biochemical
Set-up in all cases: In vitro kinase panel profiling, per cent remaining kinase activity at 10 uM
IKKα(h) = biological target: T1, IKKα(h) (Homo sapiens, UniProt O15111); conditions: atp_concentration=10, read-out: % of control remaining
T1 construct: gene CHUK
T1 sequence (O15111 1-745): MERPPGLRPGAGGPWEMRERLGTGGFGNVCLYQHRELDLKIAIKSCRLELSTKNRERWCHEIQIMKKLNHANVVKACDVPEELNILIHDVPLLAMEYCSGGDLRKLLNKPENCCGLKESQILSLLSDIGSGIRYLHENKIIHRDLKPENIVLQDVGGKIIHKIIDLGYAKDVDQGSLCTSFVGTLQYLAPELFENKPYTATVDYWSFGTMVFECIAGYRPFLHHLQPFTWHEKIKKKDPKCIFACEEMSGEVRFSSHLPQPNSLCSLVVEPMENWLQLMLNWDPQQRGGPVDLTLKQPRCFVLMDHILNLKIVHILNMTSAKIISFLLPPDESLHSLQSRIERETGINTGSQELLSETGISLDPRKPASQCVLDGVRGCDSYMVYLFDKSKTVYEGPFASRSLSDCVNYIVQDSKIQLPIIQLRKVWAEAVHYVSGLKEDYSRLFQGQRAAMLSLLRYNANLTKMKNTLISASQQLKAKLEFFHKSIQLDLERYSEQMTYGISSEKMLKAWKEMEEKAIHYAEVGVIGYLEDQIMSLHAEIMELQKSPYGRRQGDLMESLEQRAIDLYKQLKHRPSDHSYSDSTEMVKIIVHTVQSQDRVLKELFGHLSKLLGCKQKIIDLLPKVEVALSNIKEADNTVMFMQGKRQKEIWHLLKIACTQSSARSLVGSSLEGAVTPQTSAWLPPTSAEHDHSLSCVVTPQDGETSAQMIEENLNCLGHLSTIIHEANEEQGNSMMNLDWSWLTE
Description: (§1) We derisk potential for off-target activity by profiling the compound in a CEREP panel, a standard secondary pharmacology assessment, as well as a kinase panel to derisk a potential hinge-binding motif in our leads, and a PARP panel to derisk activity against human […]. Reassuringly, the compounds are selective, with the only off-targets being moderate human CHRM2 and KOR receptors activity associated with ASAP-0011198.

MEK1(h) = biological target: T2, MEK1(h) (Homo sapiens, UniProt Q02750); conditions: atp_concentration=10, read-out: % of control remaining
T2 construct: gene MAP2K1
Description: as §1

PKBα(h) = biological target: T3, PKBα(h) (Homo sapiens, UniProt P31749); conditions: atp_concentration=155, read-out: % of control remaining
T3 construct: gene AKT1
Description: as §1

CK2α2(h) = biological target: T4, CK2α2(h) (Homo sapiens, UniProt P19784); conditions: atp_concentration=10, read-out: % of control remaining
T4 construct: gene CSNK2A2
Description: as §1

CDK9/cyclin T1(h) = CDK9/cyclin T1(h) (Homo sapiens, UniProt P50750); conditions: atp_concentration=45, read-out: % of control remaining
Description: as §1

SAPK2a(h) = biological target: T5, SAPK2a(h) (Homo sapiens, UniProt Q16539); conditions: atp_concentration=90, read-out: % of control remaining
T5 construct: gene MAPK14
Description: as §1

c-RAF(h) = biological target: T6, c-RAF(h) (Homo sapiens, UniProt P04049); conditions: atp_concentration=120, read-out: % of control remaining
T6 construct: gene RAF1
Description: as §1

p70S6K(h) = biological target: T7, p70S6K(h) (Homo sapiens, UniProt P23443); conditions: atp_concentration=15, read-out: % of control remaining
T7 construct: gene RPS6KB1
Description: as §1

Plk3(h) = Plk3(h) (Homo sapiens, UniProt Q9H4B4); conditions: atp_concentration=70, read-out: % of control remaining
Description: as §1

CDK1/cyclinB(h) = CDK1/cyclinB(h) (Homo sapiens, UniProt P06493); conditions: atp_concentration=45, read-out: % of control remaining
Description: as §1

T4 sequence (P19784 whole entry): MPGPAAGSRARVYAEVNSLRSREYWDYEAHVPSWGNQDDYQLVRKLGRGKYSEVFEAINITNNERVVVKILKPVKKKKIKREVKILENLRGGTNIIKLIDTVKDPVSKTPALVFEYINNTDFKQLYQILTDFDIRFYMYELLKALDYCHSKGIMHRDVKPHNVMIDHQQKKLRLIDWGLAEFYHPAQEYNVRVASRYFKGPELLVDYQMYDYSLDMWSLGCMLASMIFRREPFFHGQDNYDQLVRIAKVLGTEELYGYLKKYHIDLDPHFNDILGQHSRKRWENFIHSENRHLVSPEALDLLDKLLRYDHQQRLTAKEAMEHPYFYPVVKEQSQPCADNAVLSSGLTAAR
Chain of CDK9/cyclin T1(h) (P50750 whole entry): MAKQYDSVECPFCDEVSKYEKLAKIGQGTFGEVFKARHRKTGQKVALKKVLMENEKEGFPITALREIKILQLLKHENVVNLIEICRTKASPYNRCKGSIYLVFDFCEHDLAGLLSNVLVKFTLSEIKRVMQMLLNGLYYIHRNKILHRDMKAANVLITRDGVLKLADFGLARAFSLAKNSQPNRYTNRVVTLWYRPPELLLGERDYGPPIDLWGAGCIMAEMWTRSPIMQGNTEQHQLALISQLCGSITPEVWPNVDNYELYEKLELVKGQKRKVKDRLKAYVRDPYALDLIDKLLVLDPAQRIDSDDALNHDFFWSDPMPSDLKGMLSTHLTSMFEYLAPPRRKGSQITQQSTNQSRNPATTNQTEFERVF
Chain of CDK9/cyclin T1(h) (O60563 whole entry partner): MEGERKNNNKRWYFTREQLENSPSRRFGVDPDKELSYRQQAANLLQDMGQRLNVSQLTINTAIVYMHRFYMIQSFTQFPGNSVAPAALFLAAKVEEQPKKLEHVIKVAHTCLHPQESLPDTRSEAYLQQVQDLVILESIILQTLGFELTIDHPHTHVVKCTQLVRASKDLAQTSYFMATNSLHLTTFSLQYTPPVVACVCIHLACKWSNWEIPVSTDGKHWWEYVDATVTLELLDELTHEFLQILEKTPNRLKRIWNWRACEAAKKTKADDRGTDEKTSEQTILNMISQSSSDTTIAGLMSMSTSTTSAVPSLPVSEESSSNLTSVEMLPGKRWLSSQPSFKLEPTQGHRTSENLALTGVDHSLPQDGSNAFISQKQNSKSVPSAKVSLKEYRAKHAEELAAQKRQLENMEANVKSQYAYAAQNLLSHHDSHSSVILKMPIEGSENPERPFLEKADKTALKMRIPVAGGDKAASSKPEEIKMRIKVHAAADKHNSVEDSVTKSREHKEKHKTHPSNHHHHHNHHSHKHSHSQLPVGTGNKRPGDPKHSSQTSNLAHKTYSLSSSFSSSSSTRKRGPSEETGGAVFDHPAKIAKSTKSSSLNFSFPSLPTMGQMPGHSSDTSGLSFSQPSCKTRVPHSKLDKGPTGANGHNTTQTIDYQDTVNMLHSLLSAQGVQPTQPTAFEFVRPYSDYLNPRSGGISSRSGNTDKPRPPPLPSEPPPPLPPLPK
Chain of CDK1/cyclinB(h) (P06493 whole entry): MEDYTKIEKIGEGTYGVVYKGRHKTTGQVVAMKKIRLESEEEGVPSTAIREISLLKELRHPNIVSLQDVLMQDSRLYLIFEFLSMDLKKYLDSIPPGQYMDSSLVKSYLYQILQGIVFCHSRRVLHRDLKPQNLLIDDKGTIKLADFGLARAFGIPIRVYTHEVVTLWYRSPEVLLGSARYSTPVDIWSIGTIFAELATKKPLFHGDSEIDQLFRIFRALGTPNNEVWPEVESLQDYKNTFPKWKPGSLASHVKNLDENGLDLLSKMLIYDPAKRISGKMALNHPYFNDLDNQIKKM
Chain of CDK1/cyclinB(h) (P14635 whole entry partner): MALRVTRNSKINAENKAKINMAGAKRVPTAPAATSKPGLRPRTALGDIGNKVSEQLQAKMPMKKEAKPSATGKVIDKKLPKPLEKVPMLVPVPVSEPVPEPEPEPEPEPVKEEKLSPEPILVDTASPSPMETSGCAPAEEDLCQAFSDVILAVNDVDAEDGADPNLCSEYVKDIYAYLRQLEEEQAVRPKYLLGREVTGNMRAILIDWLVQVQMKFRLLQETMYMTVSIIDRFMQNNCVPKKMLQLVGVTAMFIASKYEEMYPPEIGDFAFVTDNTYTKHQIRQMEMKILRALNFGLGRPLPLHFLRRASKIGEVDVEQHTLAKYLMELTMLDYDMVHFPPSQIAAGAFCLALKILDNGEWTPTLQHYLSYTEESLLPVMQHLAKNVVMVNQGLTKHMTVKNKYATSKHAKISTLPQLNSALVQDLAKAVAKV
T7 sequence (P23443 whole entry): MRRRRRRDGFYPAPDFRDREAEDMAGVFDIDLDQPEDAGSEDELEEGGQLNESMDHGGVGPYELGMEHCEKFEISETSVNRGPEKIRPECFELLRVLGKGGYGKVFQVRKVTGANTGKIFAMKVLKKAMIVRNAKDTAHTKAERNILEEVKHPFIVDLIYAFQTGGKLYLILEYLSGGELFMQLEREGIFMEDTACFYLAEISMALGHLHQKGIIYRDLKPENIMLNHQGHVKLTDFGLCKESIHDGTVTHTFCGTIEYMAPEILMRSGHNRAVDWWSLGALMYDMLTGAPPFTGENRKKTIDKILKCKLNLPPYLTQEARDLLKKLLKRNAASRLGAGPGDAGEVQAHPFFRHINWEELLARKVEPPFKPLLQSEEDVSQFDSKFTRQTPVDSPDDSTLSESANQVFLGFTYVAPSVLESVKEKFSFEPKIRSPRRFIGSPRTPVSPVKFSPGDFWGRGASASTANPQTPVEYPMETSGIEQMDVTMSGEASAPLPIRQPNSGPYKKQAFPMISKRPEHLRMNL
Chain of Plk3(h) (Q9H4B4 whole entry): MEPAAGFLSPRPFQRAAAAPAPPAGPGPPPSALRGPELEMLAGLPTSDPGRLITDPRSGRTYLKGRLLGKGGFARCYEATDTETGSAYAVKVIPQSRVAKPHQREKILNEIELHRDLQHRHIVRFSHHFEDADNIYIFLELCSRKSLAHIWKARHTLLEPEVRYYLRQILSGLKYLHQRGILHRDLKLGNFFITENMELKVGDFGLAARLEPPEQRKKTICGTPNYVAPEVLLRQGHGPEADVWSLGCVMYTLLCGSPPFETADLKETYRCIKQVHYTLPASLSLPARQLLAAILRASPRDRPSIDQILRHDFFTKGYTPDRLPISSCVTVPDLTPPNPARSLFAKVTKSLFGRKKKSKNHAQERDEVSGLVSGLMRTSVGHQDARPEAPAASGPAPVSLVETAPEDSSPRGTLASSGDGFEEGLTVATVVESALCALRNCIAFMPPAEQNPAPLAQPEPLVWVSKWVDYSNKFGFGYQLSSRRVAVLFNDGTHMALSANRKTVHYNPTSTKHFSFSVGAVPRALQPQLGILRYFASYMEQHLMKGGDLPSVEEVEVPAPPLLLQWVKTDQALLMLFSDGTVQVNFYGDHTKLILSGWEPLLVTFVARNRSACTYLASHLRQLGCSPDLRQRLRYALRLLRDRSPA
T5 sequence (Q16539 whole entry): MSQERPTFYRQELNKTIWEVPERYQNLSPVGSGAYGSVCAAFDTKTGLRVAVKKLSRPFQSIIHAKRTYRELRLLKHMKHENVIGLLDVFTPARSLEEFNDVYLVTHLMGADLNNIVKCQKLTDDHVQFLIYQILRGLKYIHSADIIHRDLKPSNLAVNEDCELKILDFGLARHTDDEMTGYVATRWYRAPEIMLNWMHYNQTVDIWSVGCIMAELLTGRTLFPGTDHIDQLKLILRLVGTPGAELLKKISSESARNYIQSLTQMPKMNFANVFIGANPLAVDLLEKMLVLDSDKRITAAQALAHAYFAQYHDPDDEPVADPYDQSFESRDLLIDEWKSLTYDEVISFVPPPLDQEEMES
T3 sequence (P31749 whole entry): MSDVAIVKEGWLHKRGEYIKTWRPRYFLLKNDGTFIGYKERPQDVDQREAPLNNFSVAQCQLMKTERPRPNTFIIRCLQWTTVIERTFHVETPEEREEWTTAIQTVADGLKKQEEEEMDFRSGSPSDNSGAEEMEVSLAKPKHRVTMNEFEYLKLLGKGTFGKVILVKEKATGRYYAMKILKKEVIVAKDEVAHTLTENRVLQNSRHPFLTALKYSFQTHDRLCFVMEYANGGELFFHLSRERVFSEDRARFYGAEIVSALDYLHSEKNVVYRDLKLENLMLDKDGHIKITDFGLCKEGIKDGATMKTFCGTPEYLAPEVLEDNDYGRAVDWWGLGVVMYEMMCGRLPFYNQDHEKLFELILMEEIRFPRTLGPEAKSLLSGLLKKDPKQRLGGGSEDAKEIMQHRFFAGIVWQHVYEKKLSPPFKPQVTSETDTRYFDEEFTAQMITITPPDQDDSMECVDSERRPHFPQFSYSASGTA
T6 sequence (P04049 whole entry): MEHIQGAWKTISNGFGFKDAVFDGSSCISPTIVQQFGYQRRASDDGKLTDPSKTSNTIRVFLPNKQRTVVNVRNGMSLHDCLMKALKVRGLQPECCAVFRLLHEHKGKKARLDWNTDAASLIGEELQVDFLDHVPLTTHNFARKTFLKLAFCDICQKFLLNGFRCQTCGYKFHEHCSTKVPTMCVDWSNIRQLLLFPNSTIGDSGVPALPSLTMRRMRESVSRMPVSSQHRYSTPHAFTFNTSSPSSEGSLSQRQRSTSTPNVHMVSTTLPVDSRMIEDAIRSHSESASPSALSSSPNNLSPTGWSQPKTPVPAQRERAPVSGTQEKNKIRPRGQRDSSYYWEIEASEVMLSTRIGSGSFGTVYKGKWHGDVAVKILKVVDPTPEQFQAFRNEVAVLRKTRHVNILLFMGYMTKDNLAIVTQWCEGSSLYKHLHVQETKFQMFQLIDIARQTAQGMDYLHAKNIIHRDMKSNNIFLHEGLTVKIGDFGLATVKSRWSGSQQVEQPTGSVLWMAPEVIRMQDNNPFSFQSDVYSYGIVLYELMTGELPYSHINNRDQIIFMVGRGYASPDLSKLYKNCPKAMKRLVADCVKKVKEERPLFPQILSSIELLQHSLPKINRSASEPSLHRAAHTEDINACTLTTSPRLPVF

CC(C)[C@H](Nc1ncnc2[nH]ccc12)c1ccc2c(c1)S(=O)(=O)CCC2 [ASAP-0008674]
remaining activity at 10 µM (IKKα(h); batch_name=ASAP-0008674-002): 92%
remaining activity at 10 µM (MEK1(h); batch_name=ASAP-0008674-002): 94%
remaining activity at 10 µM (PKBα(h); batch_name=ASAP-0008674-002): 95%
remaining activity at 10 µM (CK2α2(h); batch_name=ASAP-0008674-002): 87%
remaining activity at 10 µM (CDK9/cyclin T1(h); batch_name=ASAP-0008674-002): 112%
remaining activity at 10 µM (SAPK2a(h); batch_name=ASAP-0008674-002): 107%
remaining activity at 10 µM (c-RAF(h); batch_name=ASAP-0008674-002): 107%
remaining activity at 10 µM (p70S6K(h); batch_name=ASAP-0008674-002): 103%
remaining activity at 10 µM (Plk3(h); batch_name=ASAP-0008674-002): 112%
remaining activity at 10 µM (CDK1/cyclinB(h); batch_name=ASAP-0008674-002): 93%

Cc1nn(C)cc1-c1cc2c(NC(c3ccc4c(c3)S(=O)(=O)CCC4)C(C)C)ncnc2[nH]1 (stereo not shown) [ASAP-0011446]
remaining activity at 10 µM (IKKα(h); batch_name=ASAP-0011446-002): 94%
remaining activity at 10 µM (MEK1(h); batch_name=ASAP-0011446-002): 99%
remaining activity at 10 µM (PKBα(h); batch_name=ASAP-0011446-002): 91%
remaining activity at 10 µM (CK2α2(h); batch_name=ASAP-0011446-002): 92%
remaining activity at 10 µM (CDK9/cyclin T1(h); batch_name=ASAP-0011446-002): 57%
remaining activity at 10 µM (SAPK2a(h); batch_name=ASAP-0011446-002): 98%
remaining activity at 10 µM (c-RAF(h); batch_name=ASAP-0011446-002): 93%
remaining activity at 10 µM (p70S6K(h); batch_name=ASAP-0011446-002): 108%
remaining activity at 10 µM (Plk3(h); batch_name=ASAP-0011446-002): 104%
remaining activity at 10 µM (CDK1/cyclinB(h); batch_name=ASAP-0011446-002): 91%

CC(C)[C@@H](Nc1ncnc2[nH]c(-c3cnn(C)c3C#N)cc12)c1ccc2c(n1)OCCO2 [ASAP-0008418]
remaining activity at 10 µM (IKKα(h); batch_name=ASAP-0008418-001): 111%
remaining activity at 10 µM (MEK1(h); batch_name=ASAP-0008418-001): 99%
remaining activity at 10 µM (PKBα(h); batch_name=ASAP-0008418-001): 95%
remaining activity at 10 µM (CK2α2(h); batch_name=ASAP-0008418-001): 86%
remaining activity at 10 µM (CDK9/cyclin T1(h); batch_name=ASAP-0008418-001): 45%
remaining activity at 10 µM (SAPK2a(h); batch_name=ASAP-0008418-001): 103%
remaining activity at 10 µM (c-RAF(h); batch_name=ASAP-0008418-001): 81%
remaining activity at 10 µM (p70S6K(h); batch_name=ASAP-0008418-001): 82%
remaining activity at 10 µM (Plk3(h); batch_name=ASAP-0008418-001): 90%
remaining activity at 10 µM (CDK1/cyclinB(h); batch_name=ASAP-0008418-001): 95%

CC(C)C(Nc1ncnc2[nH]ccc12)c1ccc2c(c1)S(=O)(=O)CCC2 (stereo not shown) [ASAP-0008327]
remaining activity at 10 µM (IKKα(h); batch_name=ASAP-0008327-001): 91%
remaining activity at 10 µM (MEK1(h); batch_name=ASAP-0008327-001): 97%
remaining activity at 10 µM (PKBα(h); batch_name=ASAP-0008327-001): 96%
remaining activity at 10 µM (CK2α2(h); batch_name=ASAP-0008327-001): 90%
remaining activity at 10 µM (CDK9/cyclin T1(h); batch_name=ASAP-0008327-001): 114%
remaining activity at 10 µM (SAPK2a(h); batch_name=ASAP-0008327-001): 108%
remaining activity at 10 µM (c-RAF(h); batch_name=ASAP-0008327-001): 97%
remaining activity at 10 µM (p70S6K(h); batch_name=ASAP-0008327-001): 98%
remaining activity at 10 µM (Plk3(h); batch_name=ASAP-0008327-001): 103%
remaining activity at 10 µM (CDK1/cyclinB(h); batch_name=ASAP-0008327-001): 129%

CC(C)[C@H](Nc1ncnc2[nH]c(-c3cnn(C)c3C#N)cc12)c1ccc2c(n1)OCCO2 [ASAP-0010715]
remaining activity at 10 µM (IKKα(h); batch_name=ASAP-0010715-002): 120%
remaining activity at 10 µM (MEK1(h); batch_name=ASAP-0010715-002): 97%
remaining activity at 10 µM (PKBα(h); batch_name=ASAP-0010715-002): 90%
remaining activity at 10 µM (CK2α2(h); batch_name=ASAP-0010715-002): 95%
remaining activity at 10 µM (CDK9/cyclin T1(h); batch_name=ASAP-0010715-002): 79%
remaining activity at 10 µM (SAPK2a(h); batch_name=ASAP-0010715-002): 99%
remaining activity at 10 µM (c-RAF(h); batch_name=ASAP-0010715-002): 97%
remaining activity at 10 µM (p70S6K(h); batch_name=ASAP-0010715-002): 125%
remaining activity at 10 µM (Plk3(h); batch_name=ASAP-0010715-002): 102%
remaining activity at 10 µM (CDK1/cyclinB(h); batch_name=ASAP-0010715-002): 89%

CC(C)[C@@H](Nc1ncnc2[nH]c(-c3cnn(C)c3C#N)cc12)c1ccc2c(n1)OCCO2 [ASAP-0010716]
remaining activity at 10 µM (IKKα(h); batch_name=ASAP-0010716-002): 104%
remaining activity at 10 µM (MEK1(h); batch_name=ASAP-0010716-002): 103%
remaining activity at 10 µM (PKBα(h); batch_name=ASAP-0010716-002): 94%
remaining activity at 10 µM (CK2α2(h); batch_name=ASAP-0010716-002): 93%
remaining activity at 10 µM (CDK9/cyclin T1(h); batch_name=ASAP-0010716-002): 84%
remaining activity at 10 µM (SAPK2a(h); batch_name=ASAP-0010716-002): 101%
remaining activity at 10 µM (c-RAF(h); batch_name=ASAP-0010716-002): 90%
remaining activity at 10 µM (p70S6K(h); batch_name=ASAP-0010716-002): 106%
remaining activity at 10 µM (Plk3(h); batch_name=ASAP-0010716-002): 89%
remaining activity at 10 µM (CDK1/cyclinB(h); batch_name=ASAP-0010716-002): 88%

CC(C)C(Nc1ncnc2[nH]c(C(=O)NC3CCN(C)C3)cc12)c1ccc2c(c1)S(=O)(=O)CCC2 (stereo not shown) [ASAP-0011198]
remaining activity at 10 µM (IKKα(h); batch_name=ASAP-0011198-002): 82%
remaining activity at 10 µM (MEK1(h); batch_name=ASAP-0011198-002): 107%
remaining activity at 10 µM (PKBα(h); batch_name=ASAP-0011198-002): 88%
remaining activity at 10 µM (CK2α2(h); batch_name=ASAP-0011198-002): 98%
remaining activity at 10 µM (CDK9/cyclin T1(h); batch_name=ASAP-0011198-002): 108%
remaining activity at 10 µM (SAPK2a(h); batch_name=ASAP-0011198-002): 97%
remaining activity at 10 µM (c-RAF(h); batch_name=ASAP-0011198-002): 105%
remaining activity at 10 µM (p70S6K(h); batch_name=ASAP-0011198-002): 104%
remaining activity at 10 µM (Plk3(h); batch_name=ASAP-0011198-002): 98%
remaining activity at 10 µM (CDK1/cyclinB(h); batch_name=ASAP-0011198-002): 103%
